Laboratory results from patent US20260337208A1, “HETEROCYCLIC DERIVATIVES AS JANUS KINASE INHIBITORS” (CHIESI FARMACEUTICI S.P.A., priority 2022, published 2026).

Key:
[1] = target: JAK1 (Homo sapiens, UniProt P23458); assay: Biochemical potency on JAK1, TR-FRET (LANCE Ultra kinase assay); conditions: ATP corresponding to Km; cell-free; read-out: JAK1 inhibitory activity (pIC50) (converted)
Protocol: (§1) The objective of this study was to assess the capability of compounds to inhibit all 4 JAK isoforms activity in a cell-free environment. Assay for JAK 1, JAK 2, JAK 3 and TYK2 were performed by Time-resolved fluorescence resonance energy transfer (TR-FRET) technology. It consists in the interaction of two labelled binding partners detected by the energy transfer from an excited donor to an acceptor dye and measurement of light emission by the acceptor dye. LANCE Ultra kinase assay was used. In presence of JAK 1, JAK 2, JAK 3 and TYK2 kinases and ATP (corresponding to Km), the ULight peptide substrate (LANCE Ulight-JAK-1 (Tyr1023) Peptide, Perkin Elmer, TRF0121) is phosphorylated. It is then captured by Eu-anti-phospho-substrate antibody (LANCE Eu-W1024 Anti-phosphotyrosine (PT66), Perkin Elmer, AD0069), which bring the Eu-chelate donor and ULight acceptor dyes into close proximity. Upon excitation at 320 nm, the Eu-chelate transfers its energy to the ULight dye, resulting in a fluorescent light emission at 665 nm.
(§2) Serial dilutions of compounds in pure DMSO are prepared from 10 mM DMSO stock solutions. Compounds were tested in 384-well plate for 11 consecutive 5-fold dilutions starting from 20 μM highest concentration (20 μM-[…]). 200 nL of compound were transferred from mother plate to test plate by using Mosquito (TTP labtech). Assay was performed in 384-well Perkin Elmer test plate in 20 μL assay volume (kinase reaction) and 40 μL total volume (stopping reagent and antibody detection reagents). In 10 μL of substrate solution (peptide+ATP) 30/50/20/10 nM of peptide and 20/0.7/0.2/12 μM of ATP were added for JAK 1, JAK 2, JAK 3 and TYK2 respectively. 10 μL of enzyme solution was added to kinase reaction at these concentrations: 0.15/0.083/0.025/0.144 ng/μL of JAK 1, JAK 2, JAK 3 and TYK2 respectively. After shaking and 1.5 h of incubation at r.t., 20 μL of Stop (10 μL EDTA) and Detection mixture (10 μL Europium-anti-phospho antibody, final: 0.5 nM) were added. Reading was performed after 1 h of incubation on a En Vision 2104 reader (Perkin Elmer).
(§3) Calculation of IC50 data, curves and QC analysis was performed by using Excel tool and GraphPadPrism software, v9. Briefly, individual concentration-effect curves are generated by plotting the logarithm of the tested concentration of tested compounds (X) vs. corresponding percent inhibition values (Y) using least squares (ordinary) fit. Best fit IC50 values are calculated using Log (inhibitor) vs. normalized response—Variable slope equation, where Y=100/(1+10^((LogIC50−X)*HillSlope)). QC criteria parameters (Z′, S:B, R2, HillSlope) were checked for every IC50 curve. Calculation of IC50 data, curves and QC analysis were made using Excel tools and GraphPadPrism software. QC criteria parameters: Z′≥0.5, Hill Slope range 0.5 to 5, S:B>2.

[2] = target: TYK2 (Homo sapiens, UniProt P29597); assay: Biochemical potency on Tyk2, TR-FRET (LANCE Ultra kinase assay); conditions: ATP corresponding to Km; cell-free; read-out: TYK2 inhibitory activity (pIC50) (converted)
Sequence of TYK2 (P29597 whole entry): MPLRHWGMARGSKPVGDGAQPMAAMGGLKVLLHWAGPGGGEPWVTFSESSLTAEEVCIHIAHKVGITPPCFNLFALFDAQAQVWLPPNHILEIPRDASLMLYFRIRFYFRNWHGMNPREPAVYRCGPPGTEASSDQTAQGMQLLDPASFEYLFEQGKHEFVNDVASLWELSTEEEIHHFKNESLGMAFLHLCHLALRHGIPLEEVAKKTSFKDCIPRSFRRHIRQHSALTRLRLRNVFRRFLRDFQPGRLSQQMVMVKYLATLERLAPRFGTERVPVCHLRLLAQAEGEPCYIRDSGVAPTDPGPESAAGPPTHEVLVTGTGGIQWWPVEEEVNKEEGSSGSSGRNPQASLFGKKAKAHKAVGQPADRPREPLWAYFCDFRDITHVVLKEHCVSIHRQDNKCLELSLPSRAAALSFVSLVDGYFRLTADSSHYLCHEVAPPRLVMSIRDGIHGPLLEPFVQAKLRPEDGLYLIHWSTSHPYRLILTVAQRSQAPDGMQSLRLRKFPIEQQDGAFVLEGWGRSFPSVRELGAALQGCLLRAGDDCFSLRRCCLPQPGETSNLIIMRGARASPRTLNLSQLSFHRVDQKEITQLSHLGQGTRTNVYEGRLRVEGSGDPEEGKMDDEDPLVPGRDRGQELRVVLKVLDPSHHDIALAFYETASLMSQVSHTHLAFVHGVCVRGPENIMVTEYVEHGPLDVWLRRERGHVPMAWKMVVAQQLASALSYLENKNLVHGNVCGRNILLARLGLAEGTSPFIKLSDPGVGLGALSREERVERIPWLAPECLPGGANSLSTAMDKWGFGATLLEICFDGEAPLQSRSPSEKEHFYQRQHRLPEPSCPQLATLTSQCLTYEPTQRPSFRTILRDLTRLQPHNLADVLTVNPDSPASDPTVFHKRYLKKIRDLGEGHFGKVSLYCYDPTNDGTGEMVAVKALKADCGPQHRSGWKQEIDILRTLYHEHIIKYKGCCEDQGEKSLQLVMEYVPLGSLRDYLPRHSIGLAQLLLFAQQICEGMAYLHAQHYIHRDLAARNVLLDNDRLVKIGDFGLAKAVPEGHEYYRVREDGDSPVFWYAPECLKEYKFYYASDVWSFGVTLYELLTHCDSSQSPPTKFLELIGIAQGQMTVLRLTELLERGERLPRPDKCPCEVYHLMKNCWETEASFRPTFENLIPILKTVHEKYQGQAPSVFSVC
Protocol: as §1, §2, §3

[3] = target: JAK2 (Homo sapiens, UniProt O60674); assay: Biochemical potency on JAK2, TR-FRET (LANCE Ultra kinase assay); conditions: ATP corresponding to Km; cell-free; read-out: JAK2 inhibitory activity (pIC50) (converted)
Sequence of JAK2 (O60674 whole entry): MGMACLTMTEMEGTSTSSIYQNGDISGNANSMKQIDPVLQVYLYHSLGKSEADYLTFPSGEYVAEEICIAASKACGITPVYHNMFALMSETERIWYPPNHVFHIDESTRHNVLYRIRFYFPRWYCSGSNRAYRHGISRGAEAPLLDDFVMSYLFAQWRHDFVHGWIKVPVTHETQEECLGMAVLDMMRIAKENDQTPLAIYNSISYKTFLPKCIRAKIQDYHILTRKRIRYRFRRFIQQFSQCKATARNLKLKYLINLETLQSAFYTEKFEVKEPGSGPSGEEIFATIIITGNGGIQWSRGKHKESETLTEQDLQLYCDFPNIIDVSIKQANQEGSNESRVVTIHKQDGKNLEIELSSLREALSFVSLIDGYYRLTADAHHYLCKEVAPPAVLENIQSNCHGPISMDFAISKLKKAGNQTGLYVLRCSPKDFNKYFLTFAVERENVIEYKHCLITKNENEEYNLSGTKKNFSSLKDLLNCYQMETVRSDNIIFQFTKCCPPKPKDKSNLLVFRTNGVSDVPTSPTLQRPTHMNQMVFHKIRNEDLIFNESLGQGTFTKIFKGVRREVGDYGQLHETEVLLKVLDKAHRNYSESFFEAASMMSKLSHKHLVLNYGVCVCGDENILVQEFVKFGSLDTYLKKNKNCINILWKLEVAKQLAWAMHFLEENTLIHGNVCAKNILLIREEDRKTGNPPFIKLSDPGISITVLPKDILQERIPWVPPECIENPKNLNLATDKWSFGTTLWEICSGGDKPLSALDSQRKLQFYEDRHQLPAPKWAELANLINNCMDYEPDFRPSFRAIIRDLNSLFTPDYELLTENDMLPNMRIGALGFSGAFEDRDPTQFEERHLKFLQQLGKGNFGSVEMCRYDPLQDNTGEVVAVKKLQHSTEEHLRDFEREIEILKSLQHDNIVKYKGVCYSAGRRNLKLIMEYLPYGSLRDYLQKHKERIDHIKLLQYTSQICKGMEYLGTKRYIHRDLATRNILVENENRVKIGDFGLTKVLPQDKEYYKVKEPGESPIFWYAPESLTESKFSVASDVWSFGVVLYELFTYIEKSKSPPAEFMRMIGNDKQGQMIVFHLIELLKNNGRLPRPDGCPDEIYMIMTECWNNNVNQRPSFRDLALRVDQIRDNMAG
Protocol: as §1, §2, §3

[4] = target: T1, JAK3 (Homo sapiens, UniProt P52333); assay: Biochemical potency on JAK3, TR-FRET (LANCE Ultra kinase assay); conditions: ATP corresponding to Km; cell-free; read-out: JAK3 inhibitory activity (pIC50) (converted)
T1 sequence (P52333 1-1124): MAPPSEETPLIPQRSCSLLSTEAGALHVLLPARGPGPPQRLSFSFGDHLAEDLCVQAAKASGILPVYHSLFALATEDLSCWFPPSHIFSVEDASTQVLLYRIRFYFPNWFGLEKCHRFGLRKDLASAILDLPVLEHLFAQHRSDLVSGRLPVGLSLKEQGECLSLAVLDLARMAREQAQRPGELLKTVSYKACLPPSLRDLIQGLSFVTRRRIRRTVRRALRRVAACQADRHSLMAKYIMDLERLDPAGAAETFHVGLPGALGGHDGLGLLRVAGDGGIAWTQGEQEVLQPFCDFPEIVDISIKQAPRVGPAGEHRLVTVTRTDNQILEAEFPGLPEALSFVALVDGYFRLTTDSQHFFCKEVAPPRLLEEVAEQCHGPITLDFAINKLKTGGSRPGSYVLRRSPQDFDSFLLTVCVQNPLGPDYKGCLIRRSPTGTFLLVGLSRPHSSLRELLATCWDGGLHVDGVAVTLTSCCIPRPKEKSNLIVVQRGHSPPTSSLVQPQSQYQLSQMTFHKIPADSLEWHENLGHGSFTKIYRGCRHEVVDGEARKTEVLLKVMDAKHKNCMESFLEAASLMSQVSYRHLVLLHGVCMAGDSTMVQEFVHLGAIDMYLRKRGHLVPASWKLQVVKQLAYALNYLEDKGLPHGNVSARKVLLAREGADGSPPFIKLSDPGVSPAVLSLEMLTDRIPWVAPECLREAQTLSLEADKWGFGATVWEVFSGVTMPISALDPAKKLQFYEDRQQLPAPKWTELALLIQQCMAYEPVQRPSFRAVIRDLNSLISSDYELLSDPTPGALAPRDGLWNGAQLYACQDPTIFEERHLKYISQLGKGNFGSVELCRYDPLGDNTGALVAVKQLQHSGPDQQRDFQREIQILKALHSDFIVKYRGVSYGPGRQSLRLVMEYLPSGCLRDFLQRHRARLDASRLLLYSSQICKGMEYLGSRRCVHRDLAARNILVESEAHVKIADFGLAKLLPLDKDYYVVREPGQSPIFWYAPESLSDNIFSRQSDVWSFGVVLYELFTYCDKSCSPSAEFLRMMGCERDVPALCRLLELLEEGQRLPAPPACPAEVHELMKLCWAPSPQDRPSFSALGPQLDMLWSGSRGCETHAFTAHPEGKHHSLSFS
Protocol: as §1, §2, §3

[5] = system: pSTAT6 in BEAS-2B human cell line; assay: Inhibition of IL-13 induced pSTAT6 in BEAS; assay type: cell-based; conditions: for IC50: Homo sapiens, BEAS-2B, 0.5 h, IL-13 trigger, 30 min, parent compound; for Fold difference parent vs predicted acid metabolite: ratio=IC50 predicted acid metabolite/IC50 ester
Protocol: BEAS-2B human cell line was seeded (100.000 cells/well) and incubated for 48 h at 37° C., 5% CO2, 95% humidity. Compounds were added and incubated 30 min followed by IL-13 as trigger. After 30 min incubation, cells were lysed and pSTAT6 determined by Fastscan phospho-stat6 (Tyr641) sandwich ELISA kit (cell signaling). Inhibitors were tested at 11 consecutive 5-fold dilutions starting from 10 μM (10 μM-[…]) in duplicate. Calculation of IC50 data, curves and QC analysis were made using Excel tools and GraphPadPrism software. QC criteria parameters: Z′≥0.35, Hill Slope range 0.5 to 5, S:B>2.

Sequence of JAK1 (P23458 whole entry, canonical isoform): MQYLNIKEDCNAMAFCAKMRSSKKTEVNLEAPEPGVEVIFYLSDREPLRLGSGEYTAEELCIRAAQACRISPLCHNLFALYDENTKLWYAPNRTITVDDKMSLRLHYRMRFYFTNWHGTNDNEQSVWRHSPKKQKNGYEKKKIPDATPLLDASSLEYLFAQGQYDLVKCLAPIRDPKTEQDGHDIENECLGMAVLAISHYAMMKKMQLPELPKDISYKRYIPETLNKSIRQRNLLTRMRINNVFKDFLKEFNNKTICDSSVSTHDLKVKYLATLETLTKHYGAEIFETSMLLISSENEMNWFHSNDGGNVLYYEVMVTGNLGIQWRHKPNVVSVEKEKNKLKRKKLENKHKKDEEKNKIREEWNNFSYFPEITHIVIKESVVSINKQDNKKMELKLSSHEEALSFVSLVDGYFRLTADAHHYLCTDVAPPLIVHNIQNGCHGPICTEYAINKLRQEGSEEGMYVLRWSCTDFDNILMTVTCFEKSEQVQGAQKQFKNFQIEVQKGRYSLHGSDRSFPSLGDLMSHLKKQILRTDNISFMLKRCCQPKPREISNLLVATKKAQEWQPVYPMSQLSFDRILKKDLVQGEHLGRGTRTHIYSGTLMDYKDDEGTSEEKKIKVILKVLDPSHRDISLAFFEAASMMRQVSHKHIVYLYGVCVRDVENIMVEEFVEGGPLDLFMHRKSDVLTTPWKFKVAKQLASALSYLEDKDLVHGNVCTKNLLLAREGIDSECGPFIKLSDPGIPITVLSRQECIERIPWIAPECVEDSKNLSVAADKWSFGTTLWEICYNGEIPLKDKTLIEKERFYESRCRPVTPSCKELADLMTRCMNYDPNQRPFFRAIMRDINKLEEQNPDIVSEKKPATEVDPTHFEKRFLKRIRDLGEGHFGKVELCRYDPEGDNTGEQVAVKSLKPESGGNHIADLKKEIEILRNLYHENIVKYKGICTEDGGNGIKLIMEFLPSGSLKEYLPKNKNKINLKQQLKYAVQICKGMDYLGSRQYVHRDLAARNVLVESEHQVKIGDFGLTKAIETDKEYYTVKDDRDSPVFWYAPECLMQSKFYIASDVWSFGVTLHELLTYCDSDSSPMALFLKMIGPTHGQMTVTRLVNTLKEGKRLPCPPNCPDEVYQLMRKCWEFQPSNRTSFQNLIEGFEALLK

| Compound | IC50 [1] [nM] | IC50 [2] [nM] | IC50 [3] [nM] | IC50 [4] [nM] | IC50 [5] [nM] | Fold difference parent vs predicted acid metabolite [5] |
| --- | --- | --- | --- | --- | --- | --- |
| COc1cc2c(cc1-n1nc(C(=O)NCCN3CCC(C(=O)OC4CC(C#N)C4)CC3)c3cnc(-c4cnn5cccnc45)cc31)OCCN2 (centres unmarked) [Example 47, 3-cyanocyclobutyl 1-(2-(1-(6-methoxy-3,4-dihydro-2H-benzo[b][1,4]oxazin-7-yl)-6-(pyrazolo[1,5-a]pyrimidin-3-yl)-1H-pyrazolo[4,3-c]pyridine-3-carboxamido)ethyl)piperidine-4-carboxylate] | ≤ 5.01 | 5.01 to 50.1 | ≤ 5.01 | ≤ 5.01 | ≤ 5.01 | kkkk (ratio≥200) |
| COc1cc2c(cc1-n1nc(C(=O)NCCN3CCC(C(=O)OCC4(C#N)CC4)CC3)c3cnc(-c4cnn5cccnc45)cc31)OCCN2 [Example 53, (1-cyanocyclopropyl)methyl 1-(2-(1-(6-methoxy-3,4-dihydro-2H-benzo[b][1,4]oxazin-7-yl)-6-(pyrazolo[1,5-a]pyrimidin-3-yl)-1H-pyrazolo[4,3-c]pyridine-3-carboxamido)ethyl)piperidine-4-carboxylate] | ≤ 5.01 | 5.01 to 50.1 | ≤ 5.01 | ≤ 5.01 | ≤ 5.01 | kkkk (ratio≥200) |
| CCOC(=O)C1CCN(CCOC(=O)Nc2nn(-c3cc4c(cc3OC)NCCO4)c3cc(-c4cnn5cccnc45)ncc23)CC1 [Example 41, ethyl 1-(2-(((1-(6-methoxy-3,4-dihydro-2H-benzo[b][1,4]oxazin-7-yl)-6-(pyrazolo[1,5-a]pyrimidin-3-yl)-1H-pyrazolo[4,3-c]pyridin-3-yl)carbamoyl)oxy)ethyl)piperidine-4-carboxylate] | ≤ 5.01 | 5.01 to 50.1 | ≤ 5.01 | ≤ 5.01 | ≤ 5.01 | kkk (200>ratio≥100) |
| CCOC(=O)[C@H]1C[C@@H](OC(=O)Nc2nn(-c3cc4c(cc3OC)NCCO4)c3cc(-c4cnn5cccnc45)ncc23)C1 [Example 40, ethyl (1s,3s)-3-(((1-(6-methoxy-3,4-dihydro-2H-benzo[b][1,4]oxazin-7-yl)-6-(pyrazolo[1,5-a]pyrimidin-3-yl)-1H-pyrazolo[4,3-c]pyridin-3-yl)carbamoyl)oxy)cyclobutane-1-carboxylate] | ≤ 5.01 | 5.01 to 50.1 | ≤ 5.01 | ≤ 5.01 | 5.01 to 50.1 | kk (100>ratio≥10) |
| COc1cc2c(cc1-n1nc(C(=O)NCCN3CCC(C(=O)OC4CC4)CC3)c3cnc(-c4cnn5cccnc45)cc31)OCCN2 [Example 11, cyclopropyl 1-(2-(1-(6-methoxy-3,4-dihydro-2H-benzo[b][1,4]oxazin-7-yl)-6-(pyrazolo[1,5-a]pyrimidin-3-yl)-1H-pyrazolo[4,3-c]pyridine-3-carboxamido)ethyl)piperidine-4-carboxylate] | ≤ 5.01 | 5.01 to 50.1 | ≤ 5.01 | ≤ 5.01 | ≤ 5.01 | kkkk (ratio≥200) |
| COc1cc2c(cc1-n1nc(C(=O)NCCN3CC[C@H](C(=O)O[C@@H]4CCN(C)C4)C3)c3cnc(-c4cnn5cccnc45)cc31)OCCN2 [Example 56, (R)-1-methylpyrrolidin-3-yl (S)-1-(2-(1-(6-methoxy-3,4-dihydro-2H-benzo[b][1,4]oxazin-7-yl)-6-(pyrazolo[1,5-a]pyrimidin-3-yl)-1H-pyrazolo[4,3-c]pyridine-3-carboxamido)ethyl)pyrrolidine-3-carboxylate] | ≤ 5.01 | 5.01 to 50.1 | ≤ 5.01 | ≤ 5.01 | 5.01 to 50.1 | kk (100>ratio≥10) |
| COc1cc2c(cc1-n1nc(C(=O)NCCN3CCC(C(=O)OCC(C)(C)C#N)CC3)c3cnc(-c4cnn5cccnc45)cc31)OCCN2 [Example 25, 2-cyano-2-methylpropyl 1-(2-(1-(6-methoxy-3,4-dihydro-2H-benzo[b][1,4]oxazin-7-yl)-6-(pyrazolo[1,5-a]pyrimidin-3-yl)-1H-pyrazolo[4,3-c]pyridine-3-carboxamido)ethyl)piperidine-4-carboxylate] | ≤ 5.01 | 5.01 to 50.1 | ≤ 5.01 | ≤ 5.01 | ≤ 5.01 | kkkk (ratio≥200) |
| CCOC(=O)C1CN(CCNC(=O)c2nn(-c3cc4c(cc3OC)NCCO4)c3cc(-c4cnn5cccnc45)ncc23)C1 [Example 31, ethyl 1-(2-(1-(6-methoxy-3,4-dihydro-2H-benzo[b][1,4]oxazin-7-yl)-6-(pyrazolo[1,5-a]pyrimidin-3-yl)-1H-pyrazolo[4,3-c]pyridine-3-carboxamido)ethyl)azetidine-3-carboxylate] | ≤ 5.01 | 5.01 to 50.1 | ≤ 5.01 | ≤ 5.01 | 5.01 to 50.1 |  |
| COc1cc2c(cc1-n1nc(C(=O)NCCN3CCC(C(=O)OCC(C)(C)O)CC3)c3cnc(-c4cnn5cccnc45)cc31)OCCN2 [Example 14, 2-hydroxy-2-methylpropyl 1-(2-(1-(6-methoxy-3,4-dihydro-2H-benzo[b][1,4]oxazin-7-yl)-6-(pyrazolo[1,5-a]pyrimidin-3-yl)-1H-pyrazolo[4,3-c]pyridine-3-carboxamido)ethyl)piperidine-4-carboxylate] | ≤ 5.01 | 5.01 to 50.1 | ≤ 5.01 | ≤ 5.01 | ≤ 5.01 | kkkk (ratio≥200) |
